Read-outs that look alike come from different tables or passages of the source. Starred links: 1 amine or outer side, 2 acyl side, 3 side chain; linkers in the order of their positions; H or OH if unused. Non-standard residues stand in square brackets, D forms with d. Groups on a side chain read outwards from the residue. *: point of attachment. C20 diacid = O=C(O)CCCCCCCCCCCCCCCCCCC(=O)*; C18 diacid = O=C(O)CCCCCCCCCCCCCCCCC(=O)*; γGlu = O=C(O)[C@H](CCC(=O)[*:2])N[*:1]; εLys = N[C@@H](CCCCN[*:1])C(=O)[*:2]; β3hQ = NC(=O)CC[C@H](N)CC(=O)O; AEEA = NCCOCCOCC(=O)O; Aib = CC(C)(N)C(=O)O Some results are limits rather than exact numbers.

This is an account of results in patent publication US20240247080A1, “GLP1/GIP/NPY2 RECEPTOR TRIPLE AGONISTS” (Boehringer Ingelheim International GmbH, priority 2022, published 2024).

Common to all, as to assay type: cell-based
Holding throughout (conditions): CreLuc reporter gene assay

For one assay, the target named is T1, hGLP1R (Homo sapiens, UniProt P43220).
T1 construct: expressed in transfected cells; host or cells: HEK-293 cells carrying a CRE-luciferase reporter gene
Nature of the assay: hGLP1R CreLuc reporter gene assay in 0.5% and 100% plasma. The procedure, abridged: (§1)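 HEK cells (GLP-1R, NPY2R) or CHO cells (GIPR) carrying a CRE-luciferase reporter, incubated 4 h at 37 °C with peptides in HBSS/20 mM HEPES pH 7.4 plus 0.5% human plasma, or in 100% plasma. Luminescence read; EC50 from 8-point variable-slope sigmoid fits.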

The next assay deals with T2, hGIPR (Homo sapiens, UniProt P48546).
T2 construct: expressed in transfected cells; host or cells: CHO cells carrying a CRE-luciferase reporter gene
T2 sequence (P48546 22-466): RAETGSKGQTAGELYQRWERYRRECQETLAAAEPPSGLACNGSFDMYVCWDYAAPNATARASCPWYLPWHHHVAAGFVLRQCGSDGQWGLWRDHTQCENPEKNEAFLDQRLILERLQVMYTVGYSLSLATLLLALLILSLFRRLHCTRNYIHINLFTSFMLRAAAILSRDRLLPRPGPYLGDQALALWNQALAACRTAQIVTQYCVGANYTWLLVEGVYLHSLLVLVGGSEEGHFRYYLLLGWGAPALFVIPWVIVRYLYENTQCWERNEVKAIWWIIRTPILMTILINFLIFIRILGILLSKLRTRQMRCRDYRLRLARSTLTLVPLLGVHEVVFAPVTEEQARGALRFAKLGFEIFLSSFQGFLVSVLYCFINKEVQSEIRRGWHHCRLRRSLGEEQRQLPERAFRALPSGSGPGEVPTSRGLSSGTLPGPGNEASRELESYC
Nature of the assay: hGIPR CreLuc reporter gene assay in 0.5% and 100% plasma. Summed up: as §1

The target in the next assay is T3, hNPY2R (Homo sapiens, UniProt P49146).
T3 construct: expressed in transfected cells; host or cells: HEK-293 cells carrying a CRE-luciferase reporter gene
T3 sequence (P49146 1-381): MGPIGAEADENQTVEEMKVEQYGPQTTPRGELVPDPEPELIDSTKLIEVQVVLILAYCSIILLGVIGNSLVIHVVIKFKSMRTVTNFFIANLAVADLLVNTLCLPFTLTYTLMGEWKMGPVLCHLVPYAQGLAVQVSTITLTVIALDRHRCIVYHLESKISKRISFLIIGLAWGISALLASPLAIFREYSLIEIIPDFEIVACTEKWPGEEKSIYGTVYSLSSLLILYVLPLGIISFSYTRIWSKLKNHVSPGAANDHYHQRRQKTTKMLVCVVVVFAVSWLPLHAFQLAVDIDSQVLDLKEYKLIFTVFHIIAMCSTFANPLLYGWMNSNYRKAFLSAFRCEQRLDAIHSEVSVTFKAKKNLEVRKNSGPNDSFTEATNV
Briefly: hNPY2R CreLuc reporter gene assay in 0.5% and 100% plasma. Summed up: as §1

[1] abbreviates: 0.5% human plasma, read-out: hGLP1R 0.5% hP.
Setting [2] is: 0.5% human plasma, read-out: hGIPR 0.5% hP.
The mark [3] stands for this setting: 100% human plasma, read-out: hGIPR 100% hP.
Setting [4] is: 0.5% human plasma, read-out: hNPY2R 0.5% hP.
Setting [5] is: 100% human plasma, read-out: hNPY2R 100% hP.
Where [6] appears, read: 100% human plasma, read-out: hGLP1R 100% hP.

T1 sequence (P43220 24-463): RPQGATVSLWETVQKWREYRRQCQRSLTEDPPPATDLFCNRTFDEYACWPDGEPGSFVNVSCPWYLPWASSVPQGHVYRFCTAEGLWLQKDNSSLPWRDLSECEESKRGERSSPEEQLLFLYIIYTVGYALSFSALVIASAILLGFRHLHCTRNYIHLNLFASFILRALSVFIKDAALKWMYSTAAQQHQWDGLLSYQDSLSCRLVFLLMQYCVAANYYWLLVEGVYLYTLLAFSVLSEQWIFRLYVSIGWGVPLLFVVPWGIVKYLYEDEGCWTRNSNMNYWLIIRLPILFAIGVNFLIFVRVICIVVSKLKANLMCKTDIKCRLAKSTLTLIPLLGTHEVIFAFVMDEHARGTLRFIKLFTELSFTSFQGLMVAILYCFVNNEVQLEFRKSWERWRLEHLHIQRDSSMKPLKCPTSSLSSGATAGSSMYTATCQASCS

On to “H-Y[Aib]EGTFTSDYSI[Aib]LEKQAQ[Aib]AFVEWLIK([AEEA-AEEA-γGlu-γGlu-γGlu-γGlu-C20 diacid])GGPSSPASLRHYYNWLTRQRY-NH2 [Compound 175, Y-Aib-E-G-T-F-T-S-D-Y-S-I-Aib-L-E-K-Q-A-Q-Aib-A-F-V-E-W-L-I-K(1,3)-GGPSSPASLRHYYNWLTRQRY-NH2.C20DA-gGlu-gGlu-gGlu-gGlu-OEG-OEG(1,2)]”, for which the EC50 on hGLP1R (setting [1]) came to 0.1 nM; at hGIPR (setting [2]) it was 0.29 nM; on hGIPR (setting [3]) it was 1.53 nM; at hNPY2R (setting [4]) it was 10.5 nM; at hNPY2R (setting [5]), 48.7 nM.

With “H-Y[Aib]EGTFTSDYSI[Aib]LEKQAQ[Aib]AFVEWLIK([AEEA-AEEA-γGlu-γGlu-γGlu-γGlu-C20 diacid])GGPSEGASLRHYYNWLTRQRY-NH2 [Compound 287, Y-Aib-E-G-T-F-T-S-D-Y-S-I-Aib-L-E-K-Q-A-Q-Aib-A-F-V-E-W-L-I-K(1,3)-GGPSEGASLRHYYNWLTRQRY-NH2.C20DA-gGlu-gGlu-gGlu-gGlu-OEG-OEG(1,2)]”, the EC50 amounted to 0.27 nM on hGLP1R (setting [1]), 0.34 nM at hGIPR (setting [2]), 13.3 nM on hNPY2R (setting [4]) and 45.9 nM at hNPY2R (setting [5]).

Consider “H-Y[Aib]EGTFTSDYSI[Aib]LEKQAQ[Aib]AFVQWLIK([AEEA-AEEA-γGlu-γGlu-γGlu-γGlu-γGlu-C20 diacid])GGPSSGASLRHYYNWLTRQRY-NH2 [Compound 112, Y-Aib-E-G-T-F-T-S-D-Y-S-I-Aib-L-E-K-Q-A-Q-Aib-A-F-V-Q-W-L-I-K(1,3)-GGPSSGASLRHYYNWLTRQRY-NH2.C20DA-gGlu-gGlu-gGlu-gGlu-gGlu-OEG-OEG(1,2)]”, for which the EC50 on hGLP1R (setting [1]) came to 0.06 nM; on hGLP1R (setting [6]) it was 1.7 nM; on hGIPR (setting [2]), 0.19 nM; on hGIPR (setting [3]), 0.83 nM; at hNPY2R (setting [5]), 27.6 nM.

For the substance “H-Y[Aib]EGTFTSDYSI[Aib]LEKQAQ[Aib]EFVEWLIK([AEEA-AEEA-γGlu-γGlu-γGlu-γGlu-C18 diacid])GGPSSPASLRHYYNWLTRQRY-NH2 [Compound 56, Y-Aib-E-G-T-F-T-S-D-Y-S-I-Aib-L-E-K-Q-A-Q-Aib-E-F-V-E-W-L-I-K(1,3)-GGPSSPASLRHYYNWLTRQRY-NH2.C18DA-gGlu-gGlu-gGlu-gGlu-OEG-OEG(1,2)]”, the EC50 on hGLP1R (setting [1]) worked out at 0.25 nM; on hGLP1R (setting [6]) it was 8.97 nM; at hGIPR (setting [2]), 0.27 nM; at hNPY2R (setting [4]), 27.3 nM; on hNPY2R (setting [5]), 48.8 nM.

Consider “H-Y[Aib]EGTFTSDYSI[Aib]LEKQAQ[Aib]AFVEWLIK([γGlu-γGlu-γGlu-γGlu-C18 diacid])GGPSEGASLRHYYNWLTRQRY-NH2 [Compound 294, Y-Aib-E-G-T-F-T-S-D-Y-S-I-Aib-L-E-K-Q-A-Q-Aib-A-F-V-E-W-L-I-K(1,3)-GGPSEGASLRHYYNWLTRQRY-NH2.C18DA-gGlu-gGlu-gGlu-gGlu(1,2)]”, for which the EC50 was 0.08 nM on hGLP1R (setting [1]), 0.21 nM on hGIPR (setting [2]), 0.89 nM on hGIPR (setting [3]) and 55.2 nM on hNPY2R (setting [5]).

Consider “H-Y[Aib]EGTFTSDYSI[Aib]LEKQAE[Aib]AFVQWLIK([AEEA-AEEA-γGlu-γGlu-γGlu-γGlu-C18 diacid])GGPSEGASLRHYYNWLTRQRY-NH2 [Compound 156, Y-Aib-E-G-T-F-T-S-D-Y-S-I-Aib-L-E-K-Q-A-E-Aib-A-F-V-Q-W-L-I-K(1,3)-GGPSEGASLRHYYNWLTRQRY-NH2.C18DA-gGlu-gGlu-gGlu-gGlu-OEG-OEG(1,2)]”, for which the EC50 at hGLP1R (setting [1]) is 0.18 nM; at hGIPR (setting [2]), 0.16 nM; on hNPY2R (setting [4]) it was 13.5 nM; on hNPY2R (setting [5]) it was 26.5 nM.

With “H-Y[Aib]EGTFTSDYSI[Aib]LEKQAQ[Aib]AFVEWLIK([εLys-γGlu-γGlu-γGlu-γGlu-γGlu-γGlu-C20 diacid])GGPSSGASVRHYYNWLTRQRY-NH2 [Compound 117, Y-Aib-E-G-T-F-T-S-D-Y-S-I-Aib-L-E-K-Q-A-Q-Aib-A-F-V-E-W-L-I-K(1,3)-GGPSSGASVRHYYNWLTRQRY-NH2.C20DA-gGlu-gGlu-gGlu-gGlu-gGlu-gGlu-eLys(1,2)]”, the EC50 at hGLP1R (setting [1]) stood at 0.13 nM; on hGIPR (setting [2]) it was 0.14 nM; on hGIPR (setting [3]), 1.18 nM; on hNPY2R (setting [5]) it was 24.6 nM.

Regarding “H-Y[Aib]EGTFTSDYSI[Aib]LEKQAQ[Aib]EFVEWLIK([εLys-γGlu-γGlu-γGlu-γGlu-γGlu-γGlu-C20 diacid])GGPSEGASLRHYYNWLTRQRY-NH2 [Compound 275, Y-Aib-E-G-T-F-T-S-D-Y-S-I-Aib-L-E-K-Q-A-Q-Aib-E-F-V-E-W-L-I-K(1,3)-GGPSEGASLRHYYNWLTRQRY-NH2.C20DA-gGlu-gGlu-gGlu-gGlu-gGlu-gGlu-eLys(1,2)]”, the EC50 at hGLP1R (setting [1]) stood at 0.5 nM; on hGIPR (setting [2]), 0.27 nM; on hGIPR (setting [3]), 1.75 nM; on hNPY2R (setting [4]), 19.9 nM.

With “H-Y[Aib]EGTFTSDYSI[Aib]LEKQAQ[Aib]AFVEWLIK([εLys-γGlu-γGlu-γGlu-γGlu-γGlu-γGlu-C20 diacid])GGPSSGLSLRHYYNWLTRQRY-NH2 [Compound 107, Y-Aib-E-G-T-F-T-S-D-Y-S-I-Aib-L-E-K-Q-A-Q-Aib-A-F-V-E-W-L-I-K(1,3)-GGPSSGLSLRHYYNWLTRQRY-NH2.C20DA-gGlu-gGlu-gGlu-gGlu-gGlu-gGlu-eLys(1,2)]”, the EC50 was 0.13 nM at hGLP1R (setting [1]), 0.27 nM on hGIPR (setting [2]), 16.7 nM on hNPY2R (setting [4]) and 58.5 nM on hNPY2R (setting [5]).

With “H-Y[Aib]EGTFTSDYSI[Aib]LEKQAQ[Aib]AFVEWLIK([εLys-γGlu-γGlu-γGlu-γGlu-γGlu-γGlu-C20 diacid])GGPSSGASLRHYYNWLTR[β3hQ]RY-NH2 [Compound 208, Y-Aib-E-G-T-F-T-S-D-Y-S-I-Aib-L-E-K-Q-A-Q-Aib-A-F-V-E-W-L-I-K(1,3)-G-G-P-S-S-G-A-S-L-R-H-Y-Y-N-W-L-T-R-bHGln-R-Y-NH2.C20DA-gGlu-gGlu-gGlu-gGlu-gGlu-gGlu-eLys(1,2)]”, the EC50 at hGLP1R (setting [1]) was 0.11 nM; at hGIPR (setting [2]) it was 0.07 nM; on hGIPR (setting [3]), 0.81 nM; on hNPY2R (setting [4]) it was above 100 nM; at hNPY2R (setting [5]) it was above 1000 nM.

Consider “H-Y[Aib]EGTFTSDYSI[Aib]LEKQAQ[Aib]AFVQWLIK([γGlu-γGlu-γGlu-γGlu-γGlu-C18 diacid])GGPESGASLRHYYNWLTRQRY-NH2 [Compound 53, Y-Aib-E-G-T-F-T-S-D-Y-S-I-Aib-L-E-K-Q-A-Q-Aib-A-F-V-Q-W-L-I-K(1,3)-GGPESGASLRHYYNWLTRQRY-NH2.C18DA-gGlu-gGlu-gGlu-gGlu-gGlu(1,2)]”, for which the EC50 on hGLP1R (setting [1]) turned out to be 0.09 nM; at hGIPR (setting [2]), 0.13 nM; on hGIPR (setting [3]), 1.38 nM; on hNPY2R (setting [4]), 13.2 nM; on hNPY2R (setting [5]) it was 50.6 nM.

As to “H-Y[Aib]EGTFTSDYSI[Aib]LEKQAQ[Aib]AFVQWLIK([AEEA-AEEA-γGlu-γGlu-γGlu-γGlu-γGlu-C18 diacid])GGPSEGASLRHYYNWLTRQRY-NH2 [Compound 246, Y-Aib-E-G-T-F-T-S-D-Y-S-I-Aib-L-E-K-Q-A-Q-Aib-A-F-V-Q-W-L-I-K(1,3)-GGPSEGASLRHYYNWLTRQRY-NH2.C18DA-gGlu-gGlu-gGlu-gGlu-gGlu-OEG-OEG(1,2)]”, the EC50 at hGLP1R (setting [1]) came out at 0.11 nM; at hGIPR (setting [2]) it was 0.16 nM; at hGIPR (setting [3]), 0.95 nM; at hNPY2R (setting [4]) it was 12.8 nM; on hNPY2R (setting [5]) it was 28.2 nM.

“H-Y[Aib]EGTFTSDYSI[Aib]LEKQAQ[Aib]AFVQWLIK([εLys-γGlu-γGlu-γGlu-γGlu-γGlu-C20 diacid])GGPSEPASLRHYYNWLTRQRY-NH2 [Compound 169, Y-Aib-E-G-T-F-T-S-D-Y-S-I-Aib-L-E-K-Q-A-Q-Aib-A-F-V-Q-W-L-I-K(1,3)-GGPSEPASLRHYYNWLTRQRY-NH2.C20DA-gGlu-gGlu-gGlu-gGlu-gGlu-eLys(1,2)]”: the EC50 was 0.13 nM on hGLP1R (setting [1]), 0.26 nM at hGIPR (setting [2]), 10.3 nM on hNPY2R (setting [4]) and 50.3 nM at hNPY2R (setting [5]).
